In ChEMBL document CHEMBL3758093, “Sulfonamide inhibition studies of the β-carbonic anhydrase from the pathogenic bacterium Vibrio cholerae” (Bioorg Med Chem, 2016):

Target: Carbonic anhydrase 1 (Homo sapiens, UniProt P00915)
Sequence (P00915 whole entry): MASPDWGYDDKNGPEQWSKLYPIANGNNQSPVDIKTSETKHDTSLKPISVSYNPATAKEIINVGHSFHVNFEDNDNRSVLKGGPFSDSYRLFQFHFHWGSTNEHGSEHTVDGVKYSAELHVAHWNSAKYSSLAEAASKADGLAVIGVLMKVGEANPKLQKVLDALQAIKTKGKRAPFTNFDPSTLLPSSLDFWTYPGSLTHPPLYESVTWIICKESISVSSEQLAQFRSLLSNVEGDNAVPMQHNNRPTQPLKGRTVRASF

NS(=O)(=O)c1cccc(S(N)(=O)=O)c1 was tested, and the Ki was 28 µM.
